Assay results taken from US7842683B2, “Neurotherapeutic compositions and method” (Revaax Pharmaceuticals, LLC, priority 1999, dated 2010).

Columns and labels:
[1] = test system: male golden hamsters; experiment: Resident/intruder paradigm of offensive aggression; assay type: in vivo, Syrian golden hamsters (Mesocricetus auratus)
Method: Male Syrian golden hamsters (Mesocricetus auratus) (140-150 g) obtained from Harlan Sprague-Dawley Laboratories (Indianapolis, Ind.) were housed individually in Plexiglas cages (24 cm×24 cm×20 cm), maintained on a reverse light:dark cycle (14L:10D; lights on at 19:00 hr) and provided food and water ad libitum. Animals were acclimated to the reverse light:dark cycle for at least two weeks before testing. All behavioral tests were conducted during the dark phase of the circadian cycle. All animals were acquired and cared for in accordance with the guidelines published in the Guide for the Care and Use of Laboratory Animals (National Institutes of Health Publications No. 85-23, Revised 1985).
(§1) Agonistic behavior can be classified as either offensive or defensive aggression (Blanchard and Blanchard, 1977; Adams, […]; Albert and Walsh, 1984). Offensive aggression is characterized by the aggressor initiating an attack on an opponent, while defensive aggression lacks active approach. Both types of aggression have their own unique neurobehavioral systems. The stimuli that elicit offensive and defense attack are different, as are the sequences of behaviors that accompany each agonistic response. […] Offensive aggression is easily studied using male golden hamsters tested in a resident/intruder paradigm, an established model of offensive aggression (Ferris and Potegal 1988). Placing an unfamiliar male hamster into the home cage of another male hamster elicits a well-defined sequence of agonistic behaviors from the resident that includes offensive aggression.
(§2) Hamsters are nocturnal and as such all behavioral tests were performed during the first four hrs of the dark phase under dim red illumination. The resident was scored for offensive aggression, e.g., latency to bite the intruder, the total number of bites, total contact time with the intruder and flank marking over a 10 min test period (Ferris and Potegal, 1988). Flank marking is a form of olfactory communication in which a hamsters arches its back and rubs pheromone producing flank glands against objects in the environment (Johnson, 1986).
Parametric data, i.e., latencies and contact time, were analyzed with a one-way ANOVA followed by Newman-Keuls post hoc tests. Non parametric data, i.e., number of bites and flank marks, were analyzed with Kruskal-Wallis tests followed by Mann-Whitney U tests to determine differences between groups. Two sample comparisons were analyzed with paired and unpaired t-Tests for parametric data and Wilcoxon and Mann-Whitney Tests for paired and unpaired non-parametric data, respectively.
as §1, with “by an” for “by the”, “an opponent; while,” for “an opponent, while”, “Potegal 1988) in the context of defending the home burrow.” for “Potegal 1988).”
as §2, with “Flank marking is a form of olfactory communication in which a hamsters arches its back and rubs pheromone producing flank glands against objects in the environment (Johnson, 1986).” left out

[2] = in vivo; cited from earlier work
[3] = high dose ca. 5 mg/kg, 9 mM, IP
[4] = high dose ca. 5 mg/kg, 9 mM, IP, 90 min

Row | Compound | contact time ([1]; equimolar (90 μM) IP, 90 min) | flank marking ([1]; equimolar (90 μM) IP, 90 min) | contact time [1, 3] | flank marking [1, 3] | latency to bite [1, 4] | number of bites [1, 4] | aggressive behavior ([1]; 1 mg/kg (ca. 2 mM) IP, 90 min) | blood-brain barrier transport / CNS penetrability [2] | number of bites ([1]; equimolar (90 μM) IP, 90 min) | latency to bite ([1]; equimolar (90 μM, equal to 50 μg/kg Mox) IP, 90 min)
1 | CC1(C)S[C@@H]2[C@H](NC(=O)C(C(=O)O)c3ccccc3)C(=O)N2[C@H]1C(=O)O (stereo partly shown) [Carb, Carbenicillin] | no significant treatment effect | no significant treatment effect | no significant treatment effect | no significant treatment effect | significantly delayed | significantly reduced |  |  |  | 
2 | CC1(C)S[C@@H]2[C@H](NC(=O)[C@H](N)c3ccc(O)cc3)C(=O)N2[C@H]1C(=O)O [Amox, Amoxicillin] | no significant treatment effect | no significant treatment effect |  |  |  |  | not significantly altered |  |  | 
3 | CO[C@@]1(NC(=O)Cc2cccs2)C(=O)N2C(C(=O)O)=C(COC(N)=O)CS[C@@H]21 [Cef, Cefoxitin] | no significant treatment effect | no significant treatment effect | no significant treatment effect | no significant treatment effect |  |  |  | poor CNS penetrability |  | 
4 | CC1(C)S[C@@H]2[C@H](NC(=O)[C@H](N)c3ccccc3)C(=O)N2[C@H]1C(=O)O [Amp, Ampicillin] | no significant treatment effect | no significant treatment effect | no significant treatment effect | no significant treatment effect | significantly delayed | significantly reduced |  |  | significantly reduced | significantly delayed
